# According to US20250205226A1, “USE OF N-(3-(4-(3-(DIISOBUTYLAMINO)PROPYL)PIPERAZIN-1-YL)PROPYL)-1H-BENZO[D]IMIDAZOL-2-AMINE SALTS AND SOLVATES THEREOF FOR THE TREATMENT OF SENSORY NEURON DISEASES” (ALZPROTECT, priority 2022, published 2025):
# Read-outs that look alike come from different tables or passages of the source.
# Test system: primary culture of rat sensory neurons and Schwann cells
# Type: cell-based
# Settings: for Effect on SN neurite network after cisplatin injury / Effect on SN survival as compared to the cisplatin condition: 3 nM to 100 nM, with cisplatin 10 μg/mL injury; for Survival of SNs (number of MAP-2 positive SNs), mean survival / Total neurite network (MAP-2), mean length: percentage of control, 24 h
# Procedure: Primary sensory neurons (SN) and Schwann cells (SC) were cultured as previously described in Cancer Chem. Pharmacol. 2008 November;62 (6): 995-1007. Briefly, pregnant female rats of 15 days gestation (Rats Wistar; Janvier Labs France) were killed using a deep anesthesia with CO2 chamber and a cervical dislocation. Then, fetuses were collected and immediately placed in ice-cold L15 Leibovitz medium with a 2% penicillin (10,000 U/mL) and streptomycin (10 mg/mL) solution (PS) and 1% bovine serum albumin (BSA). DRG from spinal cord were treated for 20min at 37° C. with a trypsin-EDTA solution at a final concentration of 0.05% trypsin and 0.02% EDTA. The dissociation was stopped by addition of Dulbecco's modified Eagle's medium (DMEM) with 4.5 g/L of glucose, containing DNAse I grade II (final concentration 0.5 mg/mL) and 10% fetal calf serum (FCS). Cells were mechanically dissociated through the tip of a 10 mL pipette. Cells were then centrifuged at 515× g for 10 min at 4° C. DMEM F12 with a 1% solution of N2 supplement, 2 mmol/L of L-glutamine, 2% of PS solution, NGF (5 ng/ml) and NT3 (5 ng/ml). Cells were seeded at a density of 15,000 per well in 96-well plates pre-coated with poly-L-lysine and cultured at 37° C. in an air (95%)-CO2 (5%) incubator. […] Cells were washed twice in PBS. Cell membranes were permeabilized and non-specific sites were blocked with a solution of PBS containing 0.1% of saponin and 1% FCS for 15 min at room temperature. Then, cells were incubated for 2 h with a mouse monoclonal antibody anti-microtubule associated protein 2 (MAP-2) at dilution of 1/400 in PBS containing 1% fetal calf serum and 0.1% of saponin. This antibody binds specifically MAP-2 present in cell bodies and neurites of all SNs. […] Nuclei of neurons were labeled by a fluorescent marker (Hoechst solution). For each condition, 30 pictures (representative of 90% of the well area) per well were automatically taken using ImageXpress (Molecular Devices) with 20× magnification. All images were taken under the same conditions (exposition time, gain and laser intensity). Analysis of different endpoints was automatically performed using Custom Module Editor (Molecular Devices). The endpoints were: • Survival of SNs (number of MAP-2 positive SNs) • Total neurite network (MAP-2): total length of neurites of SNs (expressed in μm) All values are expressed as mean +/−SEM. Statistical analysis was performed by one-way ANOVA, followed by PLSD Fisher test.
Molecule,Effect on SN neurite network after cisplatin injury,Effect on SN survival as compared to the cisplatin condition,"Survival of SNs (number of MAP-2 positive SNs), mean survival (30 nM (maximal effect) with cisplatin 10 μg/mL injury, FIG. 7A) [%]","Total neurite network (MAP-2), mean length (30 nM (maximal effect) with cisplatin 10 μg/mL injury, FIG. 7B) [%]","Survival of SNs (number of MAP-2 positive SNs), mean survival (10 nM (maximal effect) with cisplatin 10 μg/mL injury, FIG. 8A) [%]","Total neurite network (MAP-2), mean length (10 nM (maximal effect) with cisplatin 10 μg/mL injury, FIG. 8B) [%]"
CC(C)CN(CCCN1CCN(CCCNc2nc3ccccc3[nH]2)CC1)CC(C)C.O=S(=O)(O)O.O=S(=O)(O)O [N-(3-(4-(3-(diisobutylamino)propyl)piperazin-1-yl)propyl)-1H-benzo[d]imidazol-2-amine di-sulphate],able to improve the neurite network after cisplatin injury,positive and significant effect on survival,80,83,–,–
N-(3-(4-(3-(diisobutylamino)propyl)piperazin-1-yl)propyl)-^1H-benzo[d]imidazol-2-amine sesqui-succinate salt [sesqui-succinate salt Form 1],able to protect the neurite network from cisplatin damage,positive and significant effect on survival,–,–,~77,~80
